In general, inhibition refers to the change of the read-out against control, counted positive when it falls. Higher therefore signals a response far below the control.

SMILES strings stand for the structures. Bounds are passed on as bounds.

In series [1] the test system is A549 lung cancer cells xenograft. The experiment in a line: Xenograft mouse model, oral gavage (Example 7). It counts as in vivo. The note with it: 40 mg/kg oral gavage 5 times a week. From the text: Athymic nude mice (6 week old nu/nu female mice, Harlan Laboratory, Minneapolis, Minn.) were inoculated in the right flank with A549 lung cancer cells (3*10^6 cells/mouse). Mice were maintained under “specific pathogen-free” conditions based on the guidelines established by the University of Minnesota Institutional Animal Care and Use Committee. Tumors were allowed to grow to an average of ˜53.5±34.5 mm^3 and then mice were divided into 2 equal groups with a similar average tumor volume (group 1; n=15), vehicle only; (group 2, […]), compound 1 at 40 mg/kg. Treatment with vehicle or compound 1 was initiated on Day 13 after inoculation of cells and continued to Day 80 (˜9 wks) and was administered by oral gavage 5 times a week. Tumor volume was measured once a week and body weight was measured once a week. Compound 1 was prepared in 2.5% DMSO/5% PEG 400/5% Tween-80 in 1×PBS and sonicated for ˜20 minutes. […] Data are shown as means±S.E (FIG. 1).

Series [2] concerns A549 cells. The experiment in a line: Cell cycle analysis (flow cytometry). It counts as cell-based, human. The note with it: A549, 48 hours. How it is done: (§1) Cells are plated in 60-mm plates and treated or not treated with Compound 1 for the indicated time. At each time point, cells are fixed in 70% ethanol and stored at −20° C. for 24 h. After staining, the cell cycle distribution or apoptosis is determined using a BD FACSCalibur Flow Cytometer (BD Biosciences, San Jose, Calif.). Aurora B inhibition leads to failure in cytokinesis and abnormal exit from mitosis, which could result in polyploidy cells, cell cycle arrest, and ultimately apoptosis. The ability to induce polyploidy cells was further examined in A549 cells treated or not treated with Compound 1. […] In addition, Compound 1 treatment for 48 hours caused an increase in the number of A549 and H520 cells occupying the G2/M phase. Moreover, exposure of these cells to Compound 1 for 72 hours induced apoptosis as measured by Annexin V/PI staining. For example, exposure to 5 μM Compound 1 induced 48% or 82% apoptosis in A549 cells and H520 cells, compared to 8% or 38% in untreated control cells, respectively.

Series [3] concerns H520 cells. The experiment in a line: Cell cycle analysis (flow cytometry). The note with it: H520, 48 hours. It counts as cell-based, human. How it is done: as §1
The next series deals with Akt2 (Homo sapiens, UniProt P31751). The experiment in a line: Akt2 in vitro kinase assay. Format: biochemical. Here is the method: According to the kinase profiler assay results, Akt2 also might be a potential target of Compound 1. An Akt1 and Akt2 in vitro kinase assays was performed.
Sequence of Akt2 (P31751 whole entry, species assumed): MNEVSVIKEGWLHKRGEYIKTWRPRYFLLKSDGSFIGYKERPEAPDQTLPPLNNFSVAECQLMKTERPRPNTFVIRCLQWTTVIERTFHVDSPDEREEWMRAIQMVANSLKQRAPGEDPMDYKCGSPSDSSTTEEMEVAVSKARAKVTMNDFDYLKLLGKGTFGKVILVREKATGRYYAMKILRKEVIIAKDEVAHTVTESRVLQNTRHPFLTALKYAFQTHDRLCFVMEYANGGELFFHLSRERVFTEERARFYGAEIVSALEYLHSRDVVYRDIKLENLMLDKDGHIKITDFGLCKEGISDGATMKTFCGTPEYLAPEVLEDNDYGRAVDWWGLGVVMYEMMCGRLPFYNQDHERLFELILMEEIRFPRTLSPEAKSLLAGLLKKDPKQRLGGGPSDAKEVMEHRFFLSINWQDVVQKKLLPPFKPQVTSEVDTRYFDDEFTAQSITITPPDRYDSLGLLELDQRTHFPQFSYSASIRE
The subject of series [4] is A549 cells. The experiment in a line: Polyploidy induction (immunofluorescence microscopy). The note with it: A549, 1 μM, 48 h. It counts as cell-based, human. Here is the method:
A549 cells are seeded in four-chamber slides and cultured overnight. The cells are then treated with DMSO or Compound 1 (1 μM) for 48 h at 37° C. After treatment, the cells are washed with PBS and fixed with methanol for 12 hours, followed by blocking with 3% PBS for 1 hour. The cells are then incubated with α-tubulin antibodies (1:100) overnight and DNA is stained with 4′-6-diamidino-2-phenylindole (DAPI, Pierce) for 30 minutes at room temperature. The cells are evaluated by fluorescent microscopy.
as §1, with “Aurora” for “Cells are plated in 60-mm plates and treated or not treated with Compound 1 for the indicated time. At each time point, cells are fixed in 70% ethanol and stored at −20° C. for 24 h. After staining, the cell cycle distribution or apoptosis is determined using a BD FACSCalibur Flow Cytometer (BD Biosciences, San Jose, Calif.). Aurora”

For a further series, the system named is HCT116 cells. The experiment in a line: Anchorage-independent growth (soft agar colony formation). Format: cell-based. The note with it: 0.5 μM. Here is the method:
FIGS. 3A and 3B. Compounds 1-8 suppress the anchorage-independent growth of HCT116 cells. The asterisk indicates a significant (* p<0.05, ** p<0.01) decrease in colony formation in cells treated with each compound compared with the DMSO treated control group. Two concentrations of each compound, 0.5 μM and 5 μM were tested. […] Compounds 2 and 4 had no effect.
Tumor cells are suspended in basal medium Eagle (BME) medium and added to 0.6% agar, with different concentrations of Compound 1 in a base layer and a top layer of 0.3% agar. The cultures are maintained at 37° C. in a 5% CO2 incubator for 1 to 2 weeks and then colonies are counted under a microscope using the Image-Pro Plus software (v.4) program (Media Cybernetics, Silver Spring, Md.).

Series [5] deals with A549 cells. The experiment in a line: Apoptosis (Annexin V/PI staining). It counts as cell-based, human. The note with it: A549, 5 μM, 72 hours. How it is done: as §1
The subject of series [6] is H520 cells. The experiment in a line: Apoptosis (Annexin V/PI staining). The note with it: H520, 5 μM, 72 hours. It counts as cell-based, human. How it is done: as §1
The test system of another series is A549 lung cancer cells. The experiment in a line: Cytotoxicity (MTS assay). It counts as cell-based, human. How it is done: To estimate the cytotoxicity of Compound 1, cells are seeded (8×10^3 cells per well) in 96-well plates and cultured overnight. Cells are fed with fresh medium and treated with different doses of Compound 1. After culturing for various times, the cytotoxicity of Compound 1 is measured using an MTS assay kit (Promega, Madison, Wis.) according to the manufacturer's instructions.
The toxicity of Compound 1 on both MRC-5 normal lung cells and A549 lung cancer cells was then examined.

As for `O=C(/C=C/c1ccc2c(c1)OCO2)/C=C1/C(=O)Nc2ccccc21` [Compound 1], the “final tumor volume (mean±S.E.)” value in [1] (Day 13 to Day 80, vehicle 1004±140.1, in mm³ (unit assumed)) stood at 403.2±50.0. In addition, the toxicity in mice entry in series [1] (~9 wks) is “No toxicity”. Besides, the “number of cells occupying the G2/M phase” value with A549 cells [2] and in the series with H520 cells [3] was “increase” in each case. Moreover, testing at 5 µM on Akt2 (5 μM) gave an inhibition of 52%. Further, at Akt2 (discussion statement), the “concentration inhibiting Akt2 kinase activity in vitro” value is at least 1 µM. In addition, the “induction of polyploidy cells” value in the series on A549 cells [4] is reported as “caused the induction of polyploidy cells”. Besides, in the series on HCT116 cells, the “anchorage-independent growth of HCT116 cells (colony formation)” value is “best efficiency”. Moreover, the “apoptosis (Annexin V/PI staining)” value in the series with A549 cells [5] turned out to be 48%; in the series on H520 cells [6], 82%. For the same molecule, the “cytotoxic effects on A549 lung cancer cells” value with A549 lung cancer cells (1 μM or less) is on record as “no obvious cytotoxic effects”. Moreover, in the series on A549 lung cancer cells (5 μM, 48 hours), the “toxicity toward A549 cancer cells” value is recorded as “weak toxicity”. Moreover, the “toxicity on A549 lung cancer cells” value in the series on A549 lung cancer cells (concentrations greater than 10 μM) was “substantial toxicity”.

Values taken from patent US9796671B2, “Aurora kinase inhibitors” (REGENTS OF THE UNIVERSITY OF MINNESOTA, priority 2012, dated 2017).
